# From patent US20250002507A1, “7,8-DIHYDRO-5H-1,6-NAPHTHYRIDINE DERIVATIVES AS POSITIVE ALLOSTERIC MODULATORS OF THE MUSCARINIC ACETYLCHOLINE RECEPTOR M4 FOR TREATING NEUROLOGICAL AND PSYCHIATRIC DISORDERS” (Vanderbilt University, priority 2021, published 2025)
# pEC50: −log10 of the molar value. Where two headings read alike, the source gives them in different places.
# Target: T1, Human M4 (Homo sapiens, UniProt P08173)
# T1 construct: expressed in transfected cells
# T1 sequence (P08173 1-479): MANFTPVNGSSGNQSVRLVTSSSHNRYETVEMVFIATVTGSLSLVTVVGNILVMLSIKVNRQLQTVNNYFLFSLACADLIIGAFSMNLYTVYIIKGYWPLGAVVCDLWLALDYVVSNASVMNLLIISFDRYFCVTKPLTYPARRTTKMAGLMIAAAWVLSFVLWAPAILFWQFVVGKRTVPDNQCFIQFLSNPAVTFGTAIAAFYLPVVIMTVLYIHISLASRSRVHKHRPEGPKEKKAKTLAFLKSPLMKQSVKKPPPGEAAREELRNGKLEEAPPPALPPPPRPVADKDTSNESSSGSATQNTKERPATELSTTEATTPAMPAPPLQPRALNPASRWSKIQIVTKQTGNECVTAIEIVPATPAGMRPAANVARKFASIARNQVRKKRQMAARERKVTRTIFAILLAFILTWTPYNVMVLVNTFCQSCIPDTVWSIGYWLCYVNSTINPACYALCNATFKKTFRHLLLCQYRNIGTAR
# Assay: mAChR M4 cell-based functional assay (calcium flux, potentiation of EC20 acetylcholine response), hM4-Gqi5 CHO-K1 cells
# Conditions: for Emax: CHO-K1, read-out: Emax (% ACh maximum at 30 μM); for Emax at 30 µM: CHO-K1, Human M4, % ACh maximum at 30 μM, read-out: Emax (% ACh maximum at 30 μM)
# Procedure, shortened: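 Positive allosteric modulation was scored as a concentration-dependent rise in the response to an EC20 dose of acetylcholine, added 144 s after the compound. Human M4-Gqi5 CHO-K1 cells carried Fluo-4 dye, and compounds ran as 11-point, 3-fold dilution series. EC50 and Emax came from four-parameter logistic fits of the FDSS fluorescence-ratio traces.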
# [1] = Table 3, potentiation of EC20 acetylcholine response, calcium flux, CHO-K1 cells, read-out: Human M4 EC50
Compound,pEC50 [1],Emax at 30 µM (Table 3) [%],Emax [%],pEC50
"Cc1c(N2CCc3ncc(N)cc3C2)nn2cnnc2c1C [Compound 152, 6-(7,8-dimethyl-[1,2,4]triazolo[4,3-b]pyridazin-6-yl)-5,6,7,8-tetrahydro-1,6-naphthyridin-3-amine]",5.89,–,102,–
"CC(=O)Nc1cnc2c(c1)CN(c1nn3cnnc3c(C)c1C)CC2 [Compound 153, N-(6-(7,8-dimethyl-[1,2,4]triazolo[4,3-b]pyridazin-6-yl)-5,6,7,8-tetrahydro-1,6-naphthyridin-3-yl)acetamide]",5.47,84,–,–
"Cc1c(N2CCc3ncc(NC(=O)C(C)C)cc3C2)nn2cnnc2c1C [Compound 154, N-(6-(7,8-dimethyl-[1,2,4]triazolo[4,3-b]pyridazin-6-yl)-5,6,7,8-tetrahydro-1,6-naphthyridin-3-yl)isobutyramide]",5.44,79,–,–
"COc1ccc(C(=O)Nc2cnc3c(c2)CN(c2nn4cnnc4c(C)c2C)CC3)cn1 [Compound 155, N-(6-(7,8-dimethyl-[1,2,4]triazolo[4,3-b]pyridazin-6-yl)-5,6,7,8-tetrahydro-1,6-naphthyridin-3-yl)-6-methoxynicotinamide]",6.02,92,–,–
"Cc1ccccc1C(=O)Nc1cnc2c(c1)CN(c1nn3cnnc3c(C)c1C)CC2 [Compound 156, N-(6-(7,8-dimethyl-[1,2,4]triazolo[4,3-b]pyridazin-6-yl)-5,6,7,8-tetrahydro-1,6-naphthyridin-3-yl)-2-methylbenzamide]",5.38,70,–,–
"COc1nc2c(cc1C)CN(c1nn3cnnc3c(C)c1C)CC2 [Compound 161, 6-(7,8-dimethyl-[1,2,4]triazolo[4,3-b]pyridazin-6-yl)-2-methoxy-3-methyl-5,6,7,8-tetrahydro-1,6-naphthyridine]",5.56,105,–,–
"CCC(C)(O)c1cnc2c(c1)CN(c1nn3cnnc3c(C)c1C)CC2 (centres unmarked) [Compound 165, 2-(6-(7,8-dimethyl-[1,2,4]triazolo[4,3-b]pyridazin-6-yl)-5,6,7,8-tetrahydro-1,6-naphthyridin-3-yl)butan-2-ol]",5.73,102,–,–
"Cc1c(N2CCc3ncc(C(C)(O)C4CC4)cc3C2)nn2cnnc2c1C (centres unmarked) [Compound 166, 1-cyclopropyl-1-(6-(7,8-dimethyl-[1,2,4]triazolo[4,3-b]pyridazin-6-yl)-5,6,7,8-tetrahydro-1,6-naphthyridin-3-yl)ethan-1-ol]",5.73,95,–,–
"Cc1cc2c(nc1C)CCN(c1nn3cnnc3c(C)c1C)C2 [Compound 167, 6-(7,8-dimethyl-[1,2,4]triazolo[4,3-b]pyridazin-6-yl)-2,3-dimethyl-5,6,7,8-tetrahydro-1,6-naphthyridine]",6.73,–,106,–
"Cc1cnc2c(c1)CN(c1nn3cc(C(=O)NC4CC4)nc3cc1C)CC2 [Compound 168, N-cyclopropyl-7-methyl-6-(3-methyl-7,8-dihydro-1,6-naphthyridin-6(5H)-yl)imidazo[1,2-b]pyridazine-2-carboxamide]",5.49,54,–,–
"Cc1cnc2c(c1)CN(c1nn3cc(C(=O)N4CCN(C)CC4)nc3cc1C)CC2 [Compound 169, (7-methyl-6-(3-methyl-7,8-dihydro-1,6-naphthyridin-6(5H)-yl)imidazo[1,2-b]pyridazin-2-yl)(4-methylpiperazin-1-yl)methanone]",5.93,111,–,–
"Cc1cnc2c(c1)CN(c1nn3cc(C(=O)N4CCCCC4)nc3cc1C)CC2 [Compound 170, (7-methyl-6-(3-methyl-7,8-dihydro-1,6-naphthyridin-6(5H)-yl)imidazo[1,2-b]pyridazin-2-yl)(piperidin-1-yl)methanone]",6.03,105,–,–
"Cc1cnc2c(c1)CN(c1nn3cc(C(=O)N4CCCC4)nc3cc1C)CC2 [Compound 171, [7-Methyl-6-(3-methyl-7,8-dihydro-5H-1,6-naphthyridin-6-yl)imidazo[1,2-b]pyridazin-2-yl]-pyrrolidin-1-yl-methanone]",5.98,107,–,–
"Cc1c(N2CCc3ncc(-c4cccnc4C(F)(F)F)cc3C2)nn2cnnc2c1C [Compound 172, 6-(7,8-dimethyl-[1,2,4]triazolo[4,3-b]pyridazin-6-yl)-3-(2-(trifluoromethyl)pyridin-3-yl)-5,6,7,8-tetrahydro-1,6-naphthyridine]",5.45,73,–,–
"COc1ncc(-c2cnc3c(c2)CN(c2nn4cnnc4c(C)c2C)CC3)cc1Cl [Compound 173, 3-(5-chloro-6-methoxypyridin-3-yl)-6-(7,8-dimethyl-[1,2,4]triazolo[4,3-b]pyridazin-6-yl)-5,6,7,8-tetrahydro-1,6-naphthyridine]",6.03,80,–,–
"COc1nc(Cl)ccc1-c1cnc2c(c1)CN(c1nn3cnnc3c(C)c1C)CC2 [Compound 174, 3-(6-chloro-2-methoxypyridin-3-yl)-6-(7,8-dimethyl-[1,2,4]triazolo[4,3-b]pyridazin-6-yl)-5,6,7,8-tetrahydro-1,6-naphthyridine]",5.97,85,–,–
"COc1ncc(-c2cnc3c(c2)CN(c2nn4cnnc4c(C)c2C)CC3)cc1F [Compound 176, 6-(7,8-dimethyl-[1,2,4]triazolo[4,3-b]pyridazin-6-yl)-3-(5-fluoro-6-methoxypyridin-3-yl)-5,6,7,8-tetrahydro-1,6-naphthyridine]",–,–,89,6.23
"COc1ncc(F)cc1-c1cnc2c(c1)CN(c1nn3cnnc3c(C)c1C)CC2 [Compound 179, 6-(7,8-dimethyl-[1,2,4]triazolo[4,3-b]pyridazin-6-yl)-3-(5-fluoro-2-methoxypyridin-3-yl)-5,6,7,8-tetrahydro-1,6-naphthyridine]",6.04,84,–,–

# Continued, in another order:
pEC50 [1],Emax at 30 µM (Table 3) [%],Compound,Emax [%],pEC50
6.11,96,"Cc1cccc(C(=O)Nc2cnc3c(c2)CN(c2nn4cnnc4c(C)c2C)CC3)c1 [Compound 157, N-(6-(7,8-dimethyl-[1,2,4]triazolo[4,3-b]pyridazin-6-yl)-5,6,7,8-tetrahydro-1,6-naphthyridin-3-yl)-3-methylbenzamide]",–,–
6.17,79,"Cc1c(N2CCc3ncc(NC(=O)c4ccc(F)cc4)cc3C2)nn2cnnc2c1C [Compound 158, N-(6-(7,8-dimethyl-[1,2,4]triazolo[4,3-b]pyridazin-6-yl)-5,6,7,8-tetrahydro-1,6-naphthyridin-3-yl)-4-fluorobenzamide]",–,–
6.97,109,"Cc1c(N2CCc3ncc(Oc4ccccc4F)cc3C2)nn2cnnc2c1C [Compound 159, 6-(7,8-dimethyl-[1,2,4]triazolo[4,3-b]pyridazin-6-yl)-3-(2-fluorophenoxy)-5,6,7,8-tetrahydro-1,6-naphthyridine]",–,–
6.84,111,"Cc1c(N2CCc3ncc(Oc4cccc(F)c4)cc3C2)nn2cnnc2c1C [Compound 160, 6-(7,8-dimethyl-[1,2,4]triazolo[4,3-b]pyridazin-6-yl)-3-(3-fluorophenoxy)-5,6,7,8-tetrahydro-1,6-naphthyridine]",–,–
6.07,105,"Cc1cnc2c(c1)CN(c1nn3cc(C(=O)N4CCOCC4)nc3cc1C)CC2 [Compound 162, (7-methyl-6-(3-methyl-7,8-dihydro-1,6-naphthyridin-6(5H)-yl)imidazo[1,2-b]pyridazin-2-yl)(morpholino)methanone]",–,–
6.12,107,"Cc1c(N2CCc3ncc(Nc4cnn(C)c4)cc3C2)nn2cnnc2c1C [Compound 163, 6-(7,8-dimethyl-[1,2,4]triazolo[4,3-b]pyridazin-6-yl)-N-(1-methyl-1H-pyrazol-4-yl)-5,6,7,8-tetrahydro-1,6-naphthyridin-3-amine]",–,–
6.82,109,"Cc1c(N2CCc3ncc(Nc4ccnn4C)cc3C2)nn2cnnc2c1C [Compound 164, 6-(7,8-dimethyl-[1,2,4]triazolo[4,3-b]pyridazin-6-yl)-N-(1-methyl-1H-pyrazol-5-yl)-5,6,7,8-tetrahydro-1,6-naphthyridin-3-amine]",–,–
6.81,81,"CCc1ccncc1-c1cnc2c(c1)CN(c1nn3cnnc3c(C)c1C)CC2 [Compound 175, 6-(7,8-dimethyl-[1,2,4]triazolo[4,3-b]pyridazin-6-yl)-3-(4-ethylpyridin-3-yl)-5,6,7,8-tetrahydro-1,6-naphthyridine]",–,–
6.13,85,"Cc1c(N2CCc3ncc(-c4cnc(Cl)c(F)c4)cc3C2)nn2cnnc2c1C [Compound 177, 3-(6-chloro-5-fluoropyridin-3-yl)-6-(7,8-dimethyl-[1,2,4]triazolo[4,3-b]pyridazin-6-yl)-5,6,7,8-tetrahydro-1,6-naphthyridine]",–,–
6.24,85,"COc1cnc(Cl)c(-c2cnc3c(c2)CN(c2nn4cnnc4c(C)c2C)CC3)c1 [Compound 178, 3-(2-chloro-5-methoxypyridin-3-yl)-6-(7,8-dimethyl-[1,2,4]triazolo[4,3-b]pyridazin-6-yl)-5,6,7,8-tetrahydro-1,6-naphthyridine]",–,–
